IC50 data for 24 compounds are collected here from patent publication US10370360B2, “Small-molecule inhibitors targeting discoidin domain receptor 1 and uses thereof” (priority 2014, dated 2019).

Holding throughout (format): biochemical
The target in one assay is DDR1 (Homo sapiens (Human), UniProt Q08345). Kind of assay: LanthaScreen Eu kinase activity assay, DDR1. The following applies: 100 nM ATP.
A further assay addresses DDR2 (Homo sapiens (Human), UniProt Q16832). As to the kind of experiment: LanthaScreen Eu kinase activity assay, DDR2. Particulars: 100 nM ATP. Background: TR-FRET usually uses a lanthanide donor and a delayed reading to cut background.
Another assay deals with Bcr-Abl. Kind of assay: FRET-based Z'-Lyte kinase assay, Abl. The following applies: 10 μM ATP; cells printed in μM.
The target of a further assay is c-Kit (Homo sapiens (Human), UniProt P10721). Kind of assay: FRET-based Z'-Lyte kinase assay, c-kit. The following applies: 300 μM ATP.
Chain of c-Kit (P10721 26-976): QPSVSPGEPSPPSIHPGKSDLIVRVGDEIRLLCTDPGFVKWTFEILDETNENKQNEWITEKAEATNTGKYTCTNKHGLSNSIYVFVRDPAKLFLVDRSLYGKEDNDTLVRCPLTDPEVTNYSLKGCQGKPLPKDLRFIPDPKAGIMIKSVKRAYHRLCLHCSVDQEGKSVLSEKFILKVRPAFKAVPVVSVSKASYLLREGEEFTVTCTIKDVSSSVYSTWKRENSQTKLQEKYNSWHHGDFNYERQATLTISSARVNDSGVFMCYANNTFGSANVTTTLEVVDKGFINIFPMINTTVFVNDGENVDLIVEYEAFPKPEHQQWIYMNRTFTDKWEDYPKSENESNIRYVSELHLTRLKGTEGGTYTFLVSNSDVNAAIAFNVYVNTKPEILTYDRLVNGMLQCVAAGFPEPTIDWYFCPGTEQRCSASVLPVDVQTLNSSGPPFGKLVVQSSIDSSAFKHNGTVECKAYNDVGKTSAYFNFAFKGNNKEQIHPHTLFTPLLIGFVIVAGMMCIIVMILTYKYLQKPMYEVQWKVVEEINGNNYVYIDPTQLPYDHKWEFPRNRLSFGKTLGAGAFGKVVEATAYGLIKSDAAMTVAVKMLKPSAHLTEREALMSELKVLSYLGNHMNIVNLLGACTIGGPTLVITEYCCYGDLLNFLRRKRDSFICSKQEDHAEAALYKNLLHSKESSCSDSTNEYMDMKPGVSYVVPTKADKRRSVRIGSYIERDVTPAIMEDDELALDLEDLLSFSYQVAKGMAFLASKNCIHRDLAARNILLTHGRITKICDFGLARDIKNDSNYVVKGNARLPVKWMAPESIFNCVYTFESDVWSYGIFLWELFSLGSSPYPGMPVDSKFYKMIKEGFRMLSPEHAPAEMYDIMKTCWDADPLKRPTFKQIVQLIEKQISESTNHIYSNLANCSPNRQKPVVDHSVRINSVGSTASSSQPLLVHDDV

Chain of DDR1 (Q08345 19-913): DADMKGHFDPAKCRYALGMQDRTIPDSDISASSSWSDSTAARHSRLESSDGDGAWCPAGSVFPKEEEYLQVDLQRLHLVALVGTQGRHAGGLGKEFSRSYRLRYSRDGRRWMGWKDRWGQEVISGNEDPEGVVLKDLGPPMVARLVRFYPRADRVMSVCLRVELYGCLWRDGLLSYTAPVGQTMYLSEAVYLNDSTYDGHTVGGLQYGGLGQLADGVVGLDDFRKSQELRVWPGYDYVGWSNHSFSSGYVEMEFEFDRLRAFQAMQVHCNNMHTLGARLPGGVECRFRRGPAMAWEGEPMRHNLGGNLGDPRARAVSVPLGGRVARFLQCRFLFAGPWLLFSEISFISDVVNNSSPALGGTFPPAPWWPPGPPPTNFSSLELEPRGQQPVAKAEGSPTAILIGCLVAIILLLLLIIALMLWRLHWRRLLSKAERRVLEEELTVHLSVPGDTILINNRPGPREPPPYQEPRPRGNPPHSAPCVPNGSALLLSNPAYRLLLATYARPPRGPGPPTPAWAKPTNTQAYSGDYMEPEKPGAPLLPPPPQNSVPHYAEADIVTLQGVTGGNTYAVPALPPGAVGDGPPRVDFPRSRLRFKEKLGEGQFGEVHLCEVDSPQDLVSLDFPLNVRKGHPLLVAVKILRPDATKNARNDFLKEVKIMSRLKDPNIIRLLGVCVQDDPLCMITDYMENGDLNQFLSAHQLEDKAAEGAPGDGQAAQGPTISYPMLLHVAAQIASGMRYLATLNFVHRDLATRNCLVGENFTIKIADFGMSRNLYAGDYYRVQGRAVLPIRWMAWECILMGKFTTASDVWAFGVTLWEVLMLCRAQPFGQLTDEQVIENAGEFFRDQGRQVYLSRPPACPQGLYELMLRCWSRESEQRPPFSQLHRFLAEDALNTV
Chain of Bcr-Abl (P00519 whole entry): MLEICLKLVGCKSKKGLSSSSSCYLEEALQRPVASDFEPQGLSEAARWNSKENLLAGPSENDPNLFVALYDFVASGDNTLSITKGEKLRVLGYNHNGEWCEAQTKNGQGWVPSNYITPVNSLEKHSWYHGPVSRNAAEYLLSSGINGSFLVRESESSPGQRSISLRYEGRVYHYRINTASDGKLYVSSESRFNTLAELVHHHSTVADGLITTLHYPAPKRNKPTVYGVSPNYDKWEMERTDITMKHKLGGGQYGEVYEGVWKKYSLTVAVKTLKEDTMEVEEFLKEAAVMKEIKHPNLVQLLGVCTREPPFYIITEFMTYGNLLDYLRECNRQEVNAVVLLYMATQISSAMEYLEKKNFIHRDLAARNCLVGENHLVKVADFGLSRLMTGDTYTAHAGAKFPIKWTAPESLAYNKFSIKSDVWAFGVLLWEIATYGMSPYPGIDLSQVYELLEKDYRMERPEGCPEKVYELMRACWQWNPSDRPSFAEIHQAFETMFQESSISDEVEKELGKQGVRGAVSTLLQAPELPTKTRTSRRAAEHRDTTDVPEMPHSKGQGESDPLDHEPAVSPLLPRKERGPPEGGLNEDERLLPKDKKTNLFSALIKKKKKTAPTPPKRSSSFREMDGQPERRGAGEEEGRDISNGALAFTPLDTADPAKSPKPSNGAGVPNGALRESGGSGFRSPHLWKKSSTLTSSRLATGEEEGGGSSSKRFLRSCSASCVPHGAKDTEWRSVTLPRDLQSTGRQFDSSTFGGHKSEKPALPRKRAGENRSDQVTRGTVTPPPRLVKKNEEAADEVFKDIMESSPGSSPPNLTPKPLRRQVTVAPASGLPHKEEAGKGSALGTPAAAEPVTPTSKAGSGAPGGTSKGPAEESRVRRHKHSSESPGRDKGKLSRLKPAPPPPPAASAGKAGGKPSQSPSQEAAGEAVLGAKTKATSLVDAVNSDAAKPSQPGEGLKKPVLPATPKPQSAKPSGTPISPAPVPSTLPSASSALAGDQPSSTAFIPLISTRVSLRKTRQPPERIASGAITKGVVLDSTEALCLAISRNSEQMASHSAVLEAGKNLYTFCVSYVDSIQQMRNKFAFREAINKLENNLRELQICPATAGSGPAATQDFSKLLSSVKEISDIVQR
Chain of DDR2 (Q16832 22-855): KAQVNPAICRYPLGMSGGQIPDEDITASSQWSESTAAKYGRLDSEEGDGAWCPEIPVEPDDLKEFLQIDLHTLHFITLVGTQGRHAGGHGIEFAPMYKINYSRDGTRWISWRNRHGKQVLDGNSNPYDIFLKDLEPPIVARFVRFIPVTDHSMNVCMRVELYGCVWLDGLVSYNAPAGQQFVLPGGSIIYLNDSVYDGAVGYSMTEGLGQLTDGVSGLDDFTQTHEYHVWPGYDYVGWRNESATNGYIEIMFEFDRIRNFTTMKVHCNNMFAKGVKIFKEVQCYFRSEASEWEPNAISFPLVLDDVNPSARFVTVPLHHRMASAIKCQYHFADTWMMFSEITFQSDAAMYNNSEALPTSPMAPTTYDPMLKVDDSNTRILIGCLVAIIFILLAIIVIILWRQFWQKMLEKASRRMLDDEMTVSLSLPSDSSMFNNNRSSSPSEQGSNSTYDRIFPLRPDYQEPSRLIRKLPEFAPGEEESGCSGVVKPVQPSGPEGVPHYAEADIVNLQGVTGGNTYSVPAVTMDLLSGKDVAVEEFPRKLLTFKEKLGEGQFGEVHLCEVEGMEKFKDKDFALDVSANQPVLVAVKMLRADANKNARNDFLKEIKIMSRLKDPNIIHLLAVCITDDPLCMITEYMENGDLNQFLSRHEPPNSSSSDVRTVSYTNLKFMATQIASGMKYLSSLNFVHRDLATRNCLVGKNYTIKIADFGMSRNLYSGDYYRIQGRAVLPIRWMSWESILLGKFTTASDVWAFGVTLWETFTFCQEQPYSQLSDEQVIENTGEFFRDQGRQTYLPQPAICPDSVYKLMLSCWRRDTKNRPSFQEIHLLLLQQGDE

In general, IC50 refers to the midpoint of a concentration-inhibition curve. A low value points to higher potency. For `CC1CN(c2cncnc2)Cc2cc(C(=O)Nc3cc(CN4CCOCC4)cc(C(F)(F)F)c3)ccc21` (centres unmarked) [Example 18, 4-methyl-N-(3-(morpholinomethyl)-5-(trifluoromethyl)phenyl)-2-(pyrimidin-5-yl)-1,2,3,4-tetrahydroisoquinoline-7-carboxamide], the 50% inhibitory concentration (IC50) against DDR1 is 193 nM; at DDR2 (cells printed in μM) it was 4.5 µM; against Bcr-Abl, > 10 µM; against c-Kit it was > 10000 nM.

For `CC1CN(c2cncnc2)Cc2cc(C(=O)Nc3cc(CN4CCN(C)CC4)c(F)c(C(F)(F)F)c3)ccc21` (centres unmarked) [Example 27, N-(4-fluoro-3-((4-methylpiperazin-1-yl)methyl)-5-(trifluoromethyl)phenyl)-4-methyl-2-(pyrimidin-5-yl)-1,2,3,4-tetrahydroisoquinoline-7-carboxamide], the 50% inhibitory concentration (IC50) on DDR2 (cells printed in μM) was 1.4 µM; against c-Kit, > 10000 nM.

As to `CN1CCN(Cc2cc(NC(=O)c3ccc4c(c3)CN(c3cnc5ccccc5c3)CC4)cc(C(F)(F)F)c2)CC1` [Example 5, N-(3-((4-methylpiperazin-1-yl)methyl)-5-(trifluoromethyl)phenyl)-2-(quinolin-3-yl)-1,2,3,4-tetrahydroisoquinoline-7-carboxamide], the concentration for half-maximal inhibition (IC50) on c-Kit was determined as 8700 nM.

As for `CCc1cc(CN2CCN(C)CC2)cc(NC(=O)c2ccc3c(c2)CN(c2cncnc2)CC3C)c1` (centres unmarked) [Example 15, N-(3-ethyl-5-((4-methylpiperazin-1-yl)methyl)phenyl)-4-methyl-2-(pyrimidin-5-yl)-1,2,3,4-tetrahydroisoquinoline-7-carboxamide], the IC50 against DDR1 was 50.5 nM; on DDR2 (cells printed in μM) it was 1.4 µM; against Bcr-Abl, > 10 µM; at c-Kit, > 10000 nM.

With `CN1CCN(Cc2cc(NC(=O)c3ccc4c(c3)CN(c3cncnc3)CC4(C)C)cc(C(F)(F)F)c2)CC1` [Example 7, 4,4-dimethyl-N-(3-((4-methylpiperazin-1-yl)methyl)-5-(trifluoromethyl)phenyl)-2-(pyrimidin-5-yl)-1,2,3,4-tetrahydroisoquinoline-7-carboxamide], the 50% inhibitory concentration (IC50) was 223 nM against DDR1, 4.5 µM at DDR2 (cells printed in μM), > 10 µM at Bcr-Abl and > 10000 nM against c-Kit.

Consider `CC1CN(c2cncnc2)Cc2cc(C(=O)Nc3cc(CN4CCN(C)CC4)cc(C4CC4)c3)ccc21` (centres unmarked) [Example 31, N-(3-cyclopropyl-5-((4-methylpiperazin-1-yl)methyl)phenyl)-4-methyl-2-(pyrimidin-5-yl)-1,2,3,4-tetrahydroisoquinoline-7-carboxamide], for which the half-maximal inhibitory concentration (IC50) at DDR1 is 89 nM; against DDR2 (cells printed in μM) it was 1.1 µM; on c-Kit it was > 10000 nM.

For `CC1CN(c2cncnc2)Cc2cc(C(=O)Nc3cc(CN4CCN(C)CC4)cc(C4CCCC4)c3)ccc21` (centres unmarked) [Example 32, N-(3-cyclopentyl-5-((4-methylpiperazin-1-yl)methyl)phenyl)-4-methyl-2-(pyrimidin-5-yl)-1,2,3,4-tetrahydroisoquinoline-7-carboxamide], the figures for the half-inhibitory concentration (IC50) against DDR2 (cells without unit) and against c-Kit were 0.306 µM and > 10000 nM, respectively.

Turning to `CC1CN(c2cncnc2)Cc2cc(C(=O)Nc3cc(N4CCN(C)CC4)cc(C(F)(F)F)c3)ccc21` (centres unmarked) [Example 11], the concentration for half-maximal inhibition (IC50) against DDR1 was 132 nM; against DDR2 (cells printed in μM), 2.2 µM; on Bcr-Abl, > 10 µM; against c-Kit, > 10000 nM.

On to `CN1CCN(Cc2cc(NC(=O)c3ccc4c(c3)CN(c3cncnc3)CC4)cc(C(F)(F)F)c2)CC1` [Example 3, N-(3-((4-methylpiperazin-1-yl)methyl)-5-(trifluoromethyl)phenyl)-2-(pyrimidin-5-yl)-1,2,3,4-tetrahydroisoquinoline-7-carboxamide], for which the IC50 against DDR2 (cells printed in μM) is 8 µM; against c-Kit it was > 10000 nM.

Regarding `CC1CN(c2cncnc2)Cc2cc(C(=O)Nc3cc(CN4CCN(C)CC4)cc(C(F)(F)F)c3)ccc21` (centres unmarked) [Example 1, 4-methyl-N-(3-((4-methylpiperazin-1-yl)methyl)-5-(trifluoromethyl)phenyl)-2-(pyrimidin-5-yl)-1,2,3,4-tetrahydroisoquinoline-7-carboxamide], at c-Kit, the 50% inhibitory concentration (IC50) was > 10000 nM.

Turning to `C[C@@H]1CN(c2cncnc2)Cc2cc(C(=O)Nc3cc(CN4CCN(C)CC4)cc(C(F)(F)F)c3)ccc21` [Example 37, (S)-4-methyl-N-(3-((4-methylpiperazin-1-yl)methyl)-5-(trifluoromethyl)phenyl)-2-(pyrimidin-5-yl)-1,2,3,4-tetrahydroisoquinoline-7-carboxamide], the half-inhibitory concentration (IC50) on c-Kit was > 10000 nM.

With `CC1CN(c2cncnc2)Cc2cc(C(=O)Nc3cc(CN4CCN(C)CC4)cc(C(C)(C)C)c3)ccc21` (centres unmarked) [Example 28, N-(3-tert-butyl-5-((4-methylpiperazin-1-yl)methyl)phenyl)-4-methyl-2-(pyrimidin-5-yl)-1,2,3,4-tetrahydroisoquinoline-7-carboxamide], the results for the IC50 on DDR1, at DDR2 (cells without unit) and on c-Kit were 66.6 nM, 0.94 µM and > 10000 nM, respectively.

`CC1CN(c2cncnc2)Cc2cc(C(=O)Nc3cc(CN(C)CCN(C)C)cc(C(F)(F)F)c3)ccc21` (centres unmarked) [Example 23, N-(3-(((2-(dimethylamino)ethyl)(methyl)amino)methyl)-5-(trifluoromethyl)phenyl)-4-methyl-2-(pyrimidin-5-yl)-1,2,3,4-tetrahydroisoquinoline-7-carboxamide]: the IC50 against DDR2 (cells printed in μM) is 1.2 µM; at c-Kit, > 10000 nM.

Turning to `CC1CN(c2cncnc2)Cc2cc(C(=O)Nc3cc(CN4CCN(C)CC4)c(Cl)c(C(F)(F)F)c3)ccc21` (centres unmarked) [Example 8, N-(4-chloro-3-((4-methylpiperazin-1-yl)methyl)-5-(trifluoromethyl)phenyl)-4-methyl-2-(pyrimidin-5-yl)-1,2,3,4-tetrahydroisoquinoline-7-carboxamide], the IC50 was 0.915 µM against DDR2 (cells without unit) and > 10000 nM against c-Kit.

Take `CC1CN(c2cccnc2)Cc2cc(C(=O)Nc3cc(CN4CCN(C)CC4)cc(C(F)(F)F)c3)ccc21` (centres unmarked) [Example 6, 4-methyl-N-(3-((4-methylpiperazin-1-yl)methyl)-5-(trifluoromethyl)phenyl)-2-(pyridin-3-yl)-1,2,3,4-tetrahydroisoquinoline-7-carboxamide]: the IC50 on DDR2 (cells printed in μM) was 1.2 µM; at c-Kit, > 10000 nM.

In the case of `CC1CN(c2cncnc2)Cc2cc(C(=O)Nc3cc(CN4CC[C@@H](N(C)C)C4)cc(C(F)(F)F)c3)ccc21` (stereo partly drawn) [Example 24, N-(3-(((R)-3-(dimethylamino)pyrrolidin-1-yl)methyl)-5-(trifluoromethyl)phenyl)-4-methyl-2-(pyrimidin-5-yl)-1,2,3,4-tetrahydroisoquinoline-7-carboxamide], the IC50 is 0.672 µM at DDR2 (cells without unit) and > 10000 nM against c-Kit.

Regarding `CC1CN(c2cncnc2)Cc2cc(C(=O)Nc3ccc(CN4CCN(C)CC4)c(C(F)(F)F)c3)ccc21` (centres unmarked) [Example 12, 4-methyl-N-(4-((4-methylpiperazin-1-yl)methyl)-3-(trifluoromethyl)phenyl)-2-(pyrimidin-5-yl)-1,2,3,4-tetrahydroisoquinoline-7-carboxamide], the results for the 50% inhibitory concentration (IC50) against DDR1, against DDR2 (cells without unit) and on c-Kit were 19.9 nM, 0.334 µM and > 10000 nM, respectively.

Consider `C[C@H]1CN(c2cncnc2)Cc2cc(C(=O)Nc3cc(CN4CCN(C)CC4)cc(C(F)(F)F)c3)ccc21` [Example 38, (R)-4-methyl-N-(3-((4-methylpiperazin-1-yl)methyl)-5-(trifluoromethyl)phenyl)-2-(pyrimidin-5-yl)-1,2,3,4-tetrahydroisoquinoline-7-carboxamide], for which the IC50 against c-Kit is > 10000 nM.

Take `CC1CN(c2cncnc2)Cc2cc(C(=O)Nc3cc(CN4CCN(C)CC4)cc(-c4ccccc4)c3)ccc21` (centres unmarked) [Example 29, 4-methyl-N-(5-((4-methylpiperazin-1-yl)methyl)biphenyl-3-yl)-2-(pyrimidin-5-yl)-1,2,3,4-tetrahydroisoquinoline-7-carboxamide]: the IC50 against DDR1 was 44.6 nM; on DDR2 (cells printed in μM) it was 1.4 µM; against c-Kit, > 10000 nM.

As for `CC1CN(c2cncnc2)Cc2cc(C(=O)Nc3cc(CN4CC[C@H](N(C)C)C4)cc(C(F)(F)F)c3)ccc21` (stereo partly drawn) [Example 25, N-(3-(((S)-3-(dimethylamino)pyrrolidin-1-yl)methyl)-5-(trifluoromethyl)phenyl)-4-methyl-2-(pyrimidin-5-yl)-1,2,3,4-tetrahydroisoquinoline-7-carboxamide], the IC50 against DDR2 (cells without unit) is 0.862 µM; on c-Kit, > 10000 nM.

Take `CN1CCN(Cc2cc(C(=O)Nc3ccc4c(c3)CN(c3cncnc3)CC4)cc(C(F)(F)F)c2)CC1` [Example 36, 3-((4-methylpiperazin-1-yl)methyl)-N-(2-(pyrimidin-5-yl)-1,2,3,4-tetrahydroisoquinolin-7-yl)-5-(trifluoromethyl)benzamide]: the figures for the IC50 at DDR2 (cells printed in μM) and against c-Kit were 7.8 µM and > 10000 nM, respectively.

With `CCC1CN(c2cncnc2)Cc2cc(C(=O)Nc3cc(CN4CCN(C)CC4)cc(C(F)(F)F)c3)ccc21` (centres unmarked) [Example 34, 4-ethyl-N-(3-((4-methylpiperazin-1-yl)methyl)-5-(trifluoromethyl)phenyl)-2-(pyrimidin-5-yl)-1,2,3,4-tetrahydroisoquinoline-7-carboxamide], the IC50 is 2 µM at DDR2 (cells printed in μM) and > 10000 nM against c-Kit.

As for `CN1CCN(Cc2cc(NC(=O)c3ccc4c(c3)CN(c3cccnc3)CC4)cc(C(F)(F)F)c2)CC1` [Example 4, N-(3-((4-methylpiperazin-1-yl)methyl)-5-(trifluoromethyl)phenyl)-2-(pyridin-3-yl)-1,2,3,4-tetrahydroisoquinoline-7-carboxamide], the IC50 at DDR2 (cells printed in μM) is 4.3 µM; against c-Kit it was > 10000 nM.

Take `Cc1c(CN2CCN(C)CC2)cc(NC(=O)c2ccc3c(c2)CN(c2cncnc2)CC3C)cc1C(F)(F)F` (centres unmarked) [Example 9, 4-methyl-N-(4-methyl-3-((4-methylpiperazin-1-yl)methyl)-5-(trifluoromethyl)phenyl)-2-(pyrimidin-5-yl)-1,2,3,4-tetrahydroisoquinoline-7-carboxamide]: the half-inhibitory concentration (IC50) is 1.1 µM on DDR2 (cells printed in μM) and > 10000 nM at c-Kit.
